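Method: 48-hour compound exposure of cells in 96-well plates, five concentrations, linear interpolation of endpoints. GI50: concentration for 50% inhibition of growth.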 Calls of active or inactive are those of the source. No stated cut-off is given here; in the data, active = GI50 up to about 1.1 µM and inactive = higher.
Columns and labels:
Test in all cases: NCI anticancer screen, dose series, 48 h
786-0 = system: 786-0
T47D = system: T47D
OVCAR-5 = system: OVCAR-5
NCI-H522 = system: NCI-H522
SF-539 = system: SF-539
NCI-H23 = system: NCI-H23
HL-60 = system: HL-60
SR = system: SR
CAKI-1 = system: CAKI-1
ACHN = system: ACHN
A498 = system: A498
K562 = system: K562
M14 = system: M14
LOX IMVI = system: LOX IMVI
MDA-MB-231 = system: MDA-MB-231
MDA-MB-435 = system: MDA-MB-435
SW-620 = system: SW-620
SNB-75 = system: SNB-75
UO-31 = system: UO-31
HCT-15 = system: HCT-15
NCI-H460 = system: NCI-H460
HOP-92 = system: HOP-92
UACC-257 = system: UACC-257
OVCAR-8 = system: OVCAR-8
MDA-N = system: MDA-N
A549 = system: A549
COLO 205 = system: COLO 205
SN12C = system: SN12C
TK-10 = system: TK-10
SK-MEL-2 = system: SK-MEL-2
Hs-578T = system: Hs-578T
SNB-19 = system: SNB-19
IGROV-1 = system: IGROV-1
SK-MEL-5 = system: SK-MEL-5
OVCAR-4 = system: OVCAR-4
HT-29 = system: HT-29
SF-295 = system: SF-295
SK-OV-3 = system: SK-OV-3
RPMI-8226 = system: RPMI-8226
MOLT-4 = system: MOLT-4
NCI/ADR-RES = system: NCI/ADR-RES
KM12 = system: KM12
OVCAR-3 = system: OVCAR-3
SK-MEL-28 = system: SK-MEL-28
PC-3 = system: PC-3
SF-268 = system: SF-268
DU-145 = system: DU-145
HOP-62 = system: HOP-62
U-251 = system: U-251
Malme-3M = system: Malme-3M
BT-549 = system: BT-549
UACC-62 = system: UACC-62
EKVX = system: EKVX
RXF 393 = system: RXF 393
CCRF-CEM = system: CCRF-CEM
NCI-H226 = system: NCI-H226
HCT-116 = system: HCT-116
HCC 2998 = system: HCC 2998
MCF7 = system: MCF7

O=c1nc(N2CCCCC2)sc2[nH]c3ccccc3c12
GI50 (786-0): > 100 µM (inactive) | GI50 (T47D): > 100 µM (inactive) | GI50 (OVCAR-5): 11.1 µM (inactive) | GI50 (NCI-H522): > 100 µM (inactive) | GI50 (SF-539): > 100 µM (inactive) | GI50 (NCI-H23): 12.2 µM (inactive) | GI50 (HL-60): > 100 µM (inactive) | GI50 (SR): > 100 µM (inactive) | GI50 (CAKI-1): > 100 µM (inactive) | GI50 (ACHN): > 100 µM (inactive) | GI50 (A498): > 100 µM (inactive) | GI50 (K562): > 100 µM (inactive) | GI50 (M14): 34.8 µM (inactive) | GI50 (LOX IMVI): 74.8 µM (inactive) | GI50 (MDA-MB-231): 78.7 µM (inactive) | GI50 (MDA-MB-435): > 100 µM (inactive) | GI50 (SW-620): > 100 µM (inactive) | GI50 (SNB-75): > 100 µM (inactive) | GI50 (UO-31): 24.8 µM (inactive) | GI50 (HCT-15): > 100 µM | GI50 (NCI-H460): 98.2 µM (inactive) | GI50 (HOP-92): 55.3 µM (inactive) | GI50 (UACC-257): > 100 µM (inactive) | GI50 (OVCAR-8): > 100 µM (inactive) | GI50 (MDA-N): > 100 µM (inactive) | GI50 (A549): > 100 µM (inactive) | GI50 (COLO 205): > 100 µM (inactive) | GI50 (SN12C): > 100 µM (inactive) | GI50 (TK-10): 66.2 µM (inactive) | GI50 (SK-MEL-2): > 100 µM (inactive) | GI50 (Hs-578T): > 100 µM (inactive) | GI50 (SNB-19): 63.1 µM (inactive) | GI50 (IGROV-1): 78 µM (inactive) | GI50 (SK-MEL-5): > 100 µM (inactive) | GI50 (OVCAR-4): > 100 µM (inactive) | GI50 (HT-29): 62.4 µM (inactive) | GI50 (SF-295): > 100 µM (inactive) | GI50 (SK-OV-3): > 100 µM (inactive) | GI50 (RPMI-8226): 40.9 µM (inactive) | GI50 (MOLT-4): > 100 µM (inactive) | GI50 (NCI/ADR-RES): 12.6 µM (inactive) | GI50 (KM12): > 100 µM (inactive) | GI50 (OVCAR-3): 88.9 µM (inactive) | GI50 (SK-MEL-28): > 100 µM (inactive) | GI50 (PC-3): > 100 µM (inactive) | GI50 (SF-268): 54.3 µM (inactive) | GI50 (DU-145): > 100 µM (inactive) | GI50 (HOP-62): 36.2 µM (inactive) | GI50 (U-251): 96.4 µM (inactive) | GI50 (Malme-3M): 68.4 µM (inactive) | GI50 (BT-549): > 100 µM (inactive) | GI50 (UACC-62): > 100 µM (inactive) | GI50 (EKVX): > 100 µM (inactive)

CC(C)(C)[Si](C)(C)OCCC1CC2(S(=O)(=O)C3=CC=C=C=C3)ON1CC2S(=O)(=O)c1ccccc1 (stereo not given)
GI50 (786-0): > 10 µM (inactive) | GI50 (T47D): > 10 µM (inactive) | GI50 (OVCAR-5): > 10 µM (inactive) | GI50 (RXF 393): > 10 µM (inactive) | GI50 (SF-539): > 10 µM (inactive) | GI50 (NCI-H23): > 10 µM (inactive) | GI50 (ACHN): > 10 µM (inactive) | GI50 (A498): > 10 µM (inactive) | GI50 (M14): > 10 µM (inactive) | GI50 (MDA-MB-231): > 10 µM (inactive) | GI50 (CCRF-CEM): 2.56 µM (inactive) | GI50 (MDA-MB-435): > 10 µM (inactive) | GI50 (SW-620): > 10 µM (inactive) | GI50 (NCI-H226): > 10 µM (inactive) | GI50 (SNB-75): > 10 µM (inactive) | GI50 (UO-31): > 10 µM (inactive) | GI50 (NCI-H460): > 10 µM (inactive) | GI50 (HCT-116): > 10 µM (inactive) | GI50 (UACC-257): > 10 µM (inactive) | GI50 (OVCAR-8): > 10 µM (inactive) | GI50 (MDA-N): > 10 µM (inactive) | GI50 (A549): > 10 µM (inactive) | GI50 (COLO 205): > 10 µM (inactive) | GI50 (SN12C): > 10 µM (inactive) | GI50 (TK-10): > 10 µM (inactive) | GI50 (SK-MEL-2): > 10 µM (inactive) | GI50 (Hs-578T): > 10 µM (inactive) | GI50 (SNB-19): > 10 µM (inactive) | GI50 (IGROV-1): > 10 µM (inactive) | GI50 (SK-MEL-5): > 10 µM (inactive) | GI50 (OVCAR-4): > 10 µM (inactive) | GI50 (HT-29): > 10 µM (inactive) | GI50 (SF-295): > 10 µM (inactive) | GI50 (SK-OV-3): > 100 µM (inactive) | GI50 (RPMI-8226): > 10 µM (inactive) | GI50 (MOLT-4): > 10 µM (inactive) | GI50 (NCI/ADR-RES): > 10 µM (inactive) | GI50 (KM12): > 10 µM (inactive) | GI50 (OVCAR-3): > 10 µM (inactive) | GI50 (SK-MEL-28): > 10 µM (inactive) | GI50 (SF-268): > 10 µM (inactive) | GI50 (HCC 2998): > 10 µM (inactive) | GI50 (DU-145): > 10 µM (inactive) | GI50 (HOP-62): > 10 µM (inactive) | GI50 (U-251): > 100 µM (inactive) | GI50 (BT-549): > 10 µM (inactive) | GI50 (UACC-62): > 10 µM (inactive) | GI50 (MCF7): > 10 µM (inactive) | GI50 (EKVX): > 10 µM (inactive)

CC1CCC2(NC1)OC1CC3C4CC=C5CC(OC6OC(CO)C(OC7OC(C)C(O)C(O)C7O)C(O)C6OC6OC(C)C(O)C(O)C6O)CCC5(C)C4CCC3(C)C1C2C (stereo not given)
GI50 (786-0): 1.99 µM (inactive) | GI50 (T47D): 7.64 µM (inactive) | GI50 (OVCAR-5): 5.66 µM (inactive) | GI50 (RXF 393): 4.05 µM (inactive) | GI50 (NCI-H522): 1.7 µM (inactive) | GI50 (SF-539): 3.3 µM (inactive) | GI50 (NCI-H23): 12.2 µM (inactive) | GI50 (HL-60): 4.41 µM (inactive) | GI50 (SR): 3.08 µM (inactive) | GI50 (CAKI-1): 4.36 µM (inactive) | GI50 (ACHN): 3.91 µM (inactive) | GI50 (A498): 5.74 µM (inactive) | GI50 (K562): 4.11 µM (inactive) | GI50 (M14): 2.39 µM (inactive) | GI50 (LOX IMVI): 5.79 µM (inactive) | GI50 (MDA-MB-231): 3.78 µM (inactive) | GI50 (CCRF-CEM): 15 µM (inactive) | GI50 (MDA-MB-435): 2.04 µM (inactive) | GI50 (SW-620): 4.4 µM (inactive) | GI50 (NCI-H226): 2.46 µM (inactive) | GI50 (SNB-75): 2.5 µM (inactive) | GI50 (UO-31): 7.45 µM (inactive) | GI50 (HCT-15): 6.67 µM | GI50 (NCI-H460): 3.55 µM (inactive) | GI50 (HCT-116): 2.31 µM (inactive) | GI50 (HOP-92): 3.69 µM (inactive) | GI50 (UACC-257): 2.64 µM (inactive) | GI50 (OVCAR-8): 2.88 µM (inactive) | GI50 (MDA-N): 2.37 µM (inactive) | GI50 (A549): 3.15 µM (inactive) | GI50 (COLO 205): 8.63 µM (inactive) | GI50 (SN12C): 2.24 µM (inactive) | GI50 (TK-10): 5.31 µM (inactive) | GI50 (SK-MEL-2): 3.63 µM (inactive) | GI50 (Hs-578T): 3.87 µM (inactive) | GI50 (SNB-19): 11.1 µM (inactive) | GI50 (IGROV-1): 5.82 µM (inactive) | GI50 (SK-MEL-5): 5.58 µM (inactive) | GI50 (OVCAR-4): 2.54 µM (inactive) | GI50 (HT-29): 5.69 µM (inactive) | GI50 (SF-295): 2.08 µM (inactive) | GI50 (SK-OV-3): 7.18 µM (inactive) | GI50 (RPMI-8226): 12.8 µM (inactive) | GI50 (MOLT-4): 8.55 µM (inactive) | GI50 (KM12): 3.46 µM (inactive) | GI50 (OVCAR-3): 1.96 µM (inactive) | GI50 (SK-MEL-28): 1.91 µM (inactive) | GI50 (PC-3): 2.09 µM (inactive) | GI50 (SF-268): 2 µM (inactive) | GI50 (HCC 2998): 2.16 µM (inactive) | GI50 (DU-145): 4 µM (inactive) | GI50 (HOP-62): 4.09 µM (inactive) | GI50 (U-251): 2.84 µM (inactive) | GI50 (Malme-3M): 2.46 µM (inactive) | GI50 (BT-549): 15.6 µM (inactive) | GI50 (UACC-62): 3.02 µM (inactive) | GI50 (MCF7): 2.32 µM (inactive) | GI50 (EKVX): 2.5 µM (inactive)
